Where two headings read alike, the source gives them in different places.
Tests used:
[1] = system: M3 versus M1 and M2 receptors; conditions: cited from earlier work
guinea pig bladder [2] = conditions: in vivo; cited from earlier work
[3] = system: muscarinic receptors in heart and submaxillary gland; conditions: in vivo, iv; cited from earlier work
guinea pig bladder [4] = conditions: in vivo; cited from earlier work; remark: listed apart in the source
Guinea pig detrusor = assay type: cell-based
tracheal rings = assay type: cell-based, guinea pig
lung = conditions: iv
miniature swine bladder = conditions: in vivo
muscarinic receptors [5] = conditions: dog, in vivo; cited from earlier work
muscarinic receptors [6] = conditions: human, in vivo, cited from earlier work
[7] = in vivo; cited from earlier work
[8] = human, in vivo
M3 receptor = M3 receptor (Homo sapiens, UniProt P20309); conditions: cited from earlier work
Sequence of M3 receptor (P20309 whole entry): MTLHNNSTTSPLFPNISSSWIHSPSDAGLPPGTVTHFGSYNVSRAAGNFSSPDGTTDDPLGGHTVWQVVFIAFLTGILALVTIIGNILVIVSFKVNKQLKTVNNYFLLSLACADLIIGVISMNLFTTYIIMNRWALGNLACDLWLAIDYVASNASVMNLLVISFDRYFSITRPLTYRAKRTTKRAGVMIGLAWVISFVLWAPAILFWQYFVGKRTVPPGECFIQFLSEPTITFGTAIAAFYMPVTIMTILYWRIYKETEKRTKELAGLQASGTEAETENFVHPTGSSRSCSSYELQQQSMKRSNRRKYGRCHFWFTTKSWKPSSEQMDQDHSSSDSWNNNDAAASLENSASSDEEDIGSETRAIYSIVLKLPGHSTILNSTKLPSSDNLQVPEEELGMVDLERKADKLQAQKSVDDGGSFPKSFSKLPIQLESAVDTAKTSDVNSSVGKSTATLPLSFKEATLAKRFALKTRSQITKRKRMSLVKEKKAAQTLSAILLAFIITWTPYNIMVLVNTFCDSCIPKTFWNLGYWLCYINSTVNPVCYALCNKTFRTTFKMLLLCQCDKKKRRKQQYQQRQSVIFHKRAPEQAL

[9] = human, in vivo; cited from earlier work

3-(4-benzylpiperazinyl)-1,1-diphenyl-1-hydroxy-2-propanone
selective for M3 versus M1 [1]: 18 fold | selective for M3 versus M2 receptors [1]: 242 fold | separation between bladder function and effect on mydriasis (guinea pig bladder [2]): 20 fold | separation between bladder function and effect on salivation (guinea pig bladder [2]): 41 fold

O=C(OC1CCN(CCBr)CC1)C(c1ccccc1)c1ccccc1 [4-DAMP bromo mustard, N-(2-bromoethyl)-4-piperidinyl diphenylacetate]
receptors alkylated in both the heart and submaxillary gland [3]: more than 95%

CN(C)CC#CCCC(=O)C(O)(c1ccccc1)C1CCC1 (centres unmarked) [14b, 1-cyclobutyl-7-(dimethylamino)-1-hydroxy-1-phenyl-5-heptyn-2-one]
duration of action relative to oxybutynin (guinea pig bladder [4]): 5 fold

COC(=O)C1=CC[C@@H]2CC[C@H]1N2C [AEME, Anhydroecgonine methyl ester]
recovery of response to ACh after repeated washings (Guinea pig detrusor): did not recover | response of tissue to 10^−4M ACh (Guinea pig detrusor): reduced response of tissue | response to a range of ACh concentrations (up to 2×10^−3M) (Guinea pig detrusor): attenuated | reversal of attenuation by washing (Guinea pig detrusor): not reversed | cholinergic agonist activity (tracheal rings): lacked cholinergic agonist activity | levels at which antimuscarinic properties on tracheal rings were observed (as low as) (tracheal rings): 10^−9 M | sensitization to ACh produced by cocaine at 5×10^−6 M (tracheal rings): reduced the sensitization | type of muscarinic activity in vitro (tracheal rings): potent non-competitive muscarinic antagonist | safety (lung; in vivo): wide margin of safety | anticholinergic effects in the lung in vivo (lung): more sustained and dramatic than anticipated

C[N+]12CCC(CC1)C(OC(=O)C(O)(c1ccccc1)c1ccccc1)C2 (centres unmarked) [MeQNB, methyl quinuclidinyl benzilate]
Body Temp increase ° C. (miniature swine bladder): 0 °C | Heart rate % increase (miniature swine bladder): 0% | activity relative to oxybutynin (miniature swine bladder; iv): about 10 fold | rate constant k+1 (muscarinic receptors [5]): 1e+07 ± 1.7e+06 M⁻¹ s⁻¹ | rate constant k−1 (muscarinic receptors [5]): 4.5e+06 ± 500000 M⁻¹ s⁻¹ | rate constant of nonspecific binding (muscarinic receptors [6]): 0.03 min⁻¹ | Kd (muscarinic receptors [6]; read-out: equilibrium dissociation constant kd): 2 ± 0.5 nM

CN1[C@@H]2CC[C@H]1C[C@@H](OC(=O)C(CO)c1ccccc1)C2 (some centres unmarked) [atropine]
accumulation in the heart blocked by preinjection [7]: 89%

O=C1OC2(c3ccc(O)cc3Oc3cc(O)ccc32)c2ccccc21 [fluorescein]
absorbed from the bladder [8]: About 50%

COc1ccccc1CNCCCCCCNCCCCCCCCNCCCCCCNCc1ccccc1OC [methoctramine]
Ki (M3 receptor): 408 nM

O[Si](CCCN1CCCCC1)(c1ccc(F)cc1)C1CCCCC1 (centres unmarked) [p-F-HHSiD]
Ki (M3 receptor; read-out: Ki): 28 nM

CC(CC(c1ccccc1)c1ccccc1)NC(C)(C)C (centres unmarked) [terodiline, Terodiline]
Bladder volume at first urge and bladder capacity [9]: increased | micturition frequency and incontinence episodes [9]: reduced
